Structures can show the parent of a compound that is named as a salt.
Key:
[1] = tested on: ARPE-19 cells stably transduced with LM2ig; assay: Viability of ARPE-19 cells stably transduced with LM2ig; format: cell-based; conditions: FIG. 1, FIG. 2
Method: (§1) MRCS fibroblasts and life-extended human foreskin fibroblasts (HFFs) (Bresnahan and Shenk, 2000) were maintained in Dulbecco's Modified Eagle's Medium (DMEM) supplemented with 10% fetal bovine serum (FBS) and 50 U/ml penicillin-streptomycin at 37° C. and 5% CO2 in a humidified incubator. ARPE-19 cells were maintained in a 1:1 mixture of DMEM/F-12 (Mediatech Inc.) with 10% FBS (HyClone) and 50 U/ml Penicillin-Streptomycin (Mediatech Inc.). Cells were treated with a final concentration of 1 mM valproic acid (VPA) (Calbiochem™), resuspended in dimethylsulfoxide, for approximately 24 hours before imaging. Cells were treated with a final concentration of 400 nM TSA (Sigma-Aldrich) resuspended in dimethylsulfoxide, for 20-24 hours, a final concentration of 10 ng/mL TNF-α (Sigma-Aldrich) resuspended in phosphate-buffered saline (PBS), or a final concentration of 1 mM VPA (Calbiochem) for approximately 24 hours before imaging.
(§2) Standard lentiviral cloning was used to create minimal major immediate early (MIE) circuits (Dull et al., 1998). The minimal MIEP-IE2-GFP and MIEP-GFP circuits are driven by a full-length ˜2.5 kb MIE promoter-enhancer (MIEP) that spans the sequence from the MIEP modulator at the 5′ edge to the junction of immediate early (IE) exons 1 and 2. The MIEP was polymerase chain reaction (PCR)-cloned from AD169 into pLEIGW in place of the EF1a promoter. This full-length MIEP drives an IE2-IRES-GFP or mCherry-IRES-GFP cassette. IE2 was cloned from pRSV-IE86 (a gift from Jay Nelson). ARPE-19 cells were infected and fluorescence-activated cell sorter (FACS) sorted for green fluorescent protein (GFP) fluorescence to create stably expressing cell lines. Cells were treated with Trichostatin-A (TSA) for 17 hours, and GFP expression was quantified by flow cytometry. Live cells were gated by forward-versus-side scattering on a FacsCalibur™ cytometer (BD Biosciences) and mean fluorescence intensity recorded. At least 20,000 live cells were recorded for each experiment and data was analyzed in FlowJo™ (Treestar Inc.).

[2] = tested on: IE2 negative feedback (MIEP-IE2-IRES-GFP construct, LM2ig); assay: IE2 negative feedback reporter: cells harboring LM2ig (MIEP-IE2-IRES-GFP), GFP by flow cytometry; format: cell-based, human CMV (hCMV); conditions: for quiescent MIEP-driven expression in a reporter cell line: 20 μM Hoechst 33258, FACS, FIG. 4 upper panel; for production of IE2, as measured by GFP expression (GFP mean fluorescence intensity; GFP-MFI): ARPE-19 cells stably transduced with LM2ig, FIG. 1, FIG. 2; for increase in the number of GFP-positive cells: Hoechst 33342 0.25 μM, VPA concentrations as in Teng et al. (2012), cells harboring LM2ig, FIG. 6
Method: as §1, §2
See WO 2014/127148 for descriptions of MIEP-IE2-reporter constructs. For example, LM2ig construct is depicted in FIG. 7 of WO 2014/127148.

[3] = tested on: latent CMV in N-Tera2 cells; assay: N-Tera2 latency assay (reactivation of latent CMV); format: cell-based, human CMV (hCMV); conditions: FIG. 4 lower panel
Method: Reactivation of latent CMV in N-Tera2 cells was conducted as previously described in (Meier, 2001).

[4] = tested on: IE2 negative feedback (LM2ig "low" cells); assay: LM2ig "low" drug screen (4 day induction, high throughput flow cytometry); format: cell-based, human CMV (hCMV); conditions: induction period of 4 days, FIG. 9
Method: LM2ig “low” cells (˜0% GFP positive before induction) were treated with agents in duplicate for an induction period of 4 days. During this induction period, the cell culture medium was not changed; images were taken every day for 4 days. On the final day, high throughput flow cytometry was carried out on FACS IntelliCyt. Agents tested were: Hoechst 33258, Hoechst 33342, VPA, TSA, TNF-α, hexamethylene bisacetamide (HMBA), phorbol myristate acetate (PMA), neotroposin, distamycin, DAPI, gemcitabine, prednisolone, suberanilohydroxamic acid (SAHA), (2E)-N-hydroxy-3-[4-({[2-(2-methyl-1H-indol-3-yl)ethyl]amino}methyl)phenyl]acrylamide (panobinostat), thapsigargin, JQ1, prostratin, dimizane acetate, pentamidine, or bendamustine.

CC(/C=C/C(=O)NO)=C\[C@@H](C)C(=O)c1ccc(N(C)C)cc1 [TSA, (R,2E,4E)-7-(4-(dimethylamino)phenyl)-N-hydroxy-4,6-dimethyl-7-oxohepta-2,4-dienamide, reference compound]
cell viability / cytotoxicity [1]: not cytotoxic | quiescent MIEP-driven expression in a reporter cell line ([2]; ARPE-19 cells harboring LM2ig): not | production of IE2, as measured by GFP expression (GFP mean fluorescence intensity; GFP-MFI) [2]: increased IE2 expression | reactivation of latent CMV [3]: not

CCCC(CCC)C(=O)O [VPA, valproic acid, reference compound]
cell viability / cytotoxicity [1]: not cytotoxic | quiescent MIEP-driven expression in a reporter cell line ([2]; ARPE-19 cells harboring LM2ig): not | number of GFP-positive cells ([2]; ARPE-19 cells harboring LM2ig, Hoechst 33258 with or without VPA, FIG. 7): induced an increase | mean fluorescence intensity (MFI) ([2]; ARPE-19 cells harboring LM2ig, Hoechst 33258 with or without VPA, FIG. 8): did not substantially increase MFI | production of IE2, as measured by GFP expression (GFP mean fluorescence intensity; GFP-MFI) [2]: increased IE2 expression | increase in the number of GFP-positive cells [2]: 1.69 fold | reactivation of latent CMV [3]: not

CCOc1ccc(-c2nc3ccc(-c4nc5ccc(N6CCN(C)CC6)cc5[nH]4)cc3[nH]2)cc1 [Hoechst 33342, 2′-[4-ethoxyphenyl]-5-[4-methyl-1-piperazinyl]-2,5′-bi-1H-benzimidazole trihydrochloride trihydrate]
percent GFP-positive cells ([2]; 0.25 μM Hoechst 33342, 24 hours, cells with LM2ig construct, FIG. 5): increased | breaking of the IE2 negative feedback circuit ([2]; 24-28 hour exposure): breaks the IE2 negative feedback circuit | reactivation of the LM2ig minimal circuit ([2]; Hoechst 33258: after 24 hours): strongly reactivates | increase in the number of GFP-positive cells [2]: 3.49 fold | breaking of the minimal LM2ig circuit ([2]; after 24 hours, alone): does not break | breaking of the circuit and reactivation of the promoter from an off (silenced) state ([2]; long-term (e.g., 8-10 days) exposure): breaks the circuit and reactivates the promoter | breaking of the IE2 negative feedback (geometric mean of GFP) [4]: specifically break the IE2 negative feedback

Reference: US10478431B2, “Methods for treating a cytomegalovirus infection” (priority 2014, dated 2019)
